In PMC9369069, “Development of Sesamol Carbamate-L-Phenylalanine Prodrug Targeting L-Type Amino Acid Transporter1 (LAT1) as a Potential Antiproliferative Agent against Melanoma” (International Journal of Molecular Sciences, 2022):
Where two headings read alike, the source gives them in different places.

Molecular target: T1, L-type amino acid transporter 1 (LAT1) (Homo sapiens, UniProt Q01650)
T1 construct: gene SLC7A5
Test: cell-based

T1 sequence (Q01650 whole entry): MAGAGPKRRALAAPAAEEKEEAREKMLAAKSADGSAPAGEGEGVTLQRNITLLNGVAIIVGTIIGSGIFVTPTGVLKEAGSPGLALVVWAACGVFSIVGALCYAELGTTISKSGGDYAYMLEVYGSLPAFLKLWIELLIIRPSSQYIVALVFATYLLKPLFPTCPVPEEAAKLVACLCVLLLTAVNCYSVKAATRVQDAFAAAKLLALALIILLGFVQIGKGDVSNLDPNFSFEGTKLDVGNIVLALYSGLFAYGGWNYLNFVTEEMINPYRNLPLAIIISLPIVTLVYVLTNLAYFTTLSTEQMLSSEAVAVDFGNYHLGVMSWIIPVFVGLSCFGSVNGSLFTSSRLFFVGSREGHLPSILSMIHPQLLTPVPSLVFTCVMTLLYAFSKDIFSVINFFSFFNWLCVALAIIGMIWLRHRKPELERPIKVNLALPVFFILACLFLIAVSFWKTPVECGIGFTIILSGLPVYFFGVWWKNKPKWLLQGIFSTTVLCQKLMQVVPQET
T1 sequence (P08195 103-630 partner): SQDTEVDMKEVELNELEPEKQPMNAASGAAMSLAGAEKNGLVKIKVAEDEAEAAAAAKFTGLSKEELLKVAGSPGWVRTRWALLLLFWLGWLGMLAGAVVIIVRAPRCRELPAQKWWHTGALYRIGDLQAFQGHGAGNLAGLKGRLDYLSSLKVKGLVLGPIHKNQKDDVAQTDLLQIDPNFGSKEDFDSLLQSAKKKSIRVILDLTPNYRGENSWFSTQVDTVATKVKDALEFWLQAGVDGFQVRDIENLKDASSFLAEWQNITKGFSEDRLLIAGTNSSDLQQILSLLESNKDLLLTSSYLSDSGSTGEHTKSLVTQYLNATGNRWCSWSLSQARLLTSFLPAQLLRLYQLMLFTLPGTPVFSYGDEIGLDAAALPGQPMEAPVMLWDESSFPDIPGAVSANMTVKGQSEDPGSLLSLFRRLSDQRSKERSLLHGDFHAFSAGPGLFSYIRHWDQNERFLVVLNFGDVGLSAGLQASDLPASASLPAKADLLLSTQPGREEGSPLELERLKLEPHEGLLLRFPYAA

| SMILES | IC50 [µM] | IC50 (read-out: IC50) [µM] |
| --- | --- | --- |
| N[C@@H](Cc1ccc(NC(=O)Oc2ccc3c(c2)OCO3)cc1)C(=O)O [4-sesamol carbamate-L-phenylalanine prodrug] | 631 ± 38 | – |
| N[C@@H](Cc1ccccc1)C(=O)O [L-Phenylalanine] | – | 96.8 ± 11.5 |
| Oc1ccc2c(c1)OCO2 [Sesamol] | 4760 ± 219 | – |
